Like-named read-outs stand apart in the source and are kept apart here.
Columns and labels:
Type in all cases: cell-based
[1] = tested on: Staphylococcus aureus 1199B (Nor A overexpressing); assay: Nor A efflux pump inhibition, broth checkerboard combination with ciprofloxacin; conditions: for MEC4 (minimum effective concentration of compound that brings about 4 fold reduction in the MIC of Ciprofloxacin): in combination with ciprofloxacin
Procedure: Combination studies were performed by a broth checkerboard method A series of twofold dilutions of test ciprofloxacin in Muller Hinton Broth (pH 7.0) was tested in combination with twofold dilutions of boeravinone B in 96-well microtiter plates. The final concentrations of ciprofloxacin ranged from 0.03 mg/L/ml to 64 mg/L and for boeravinone B from 0.8 mg/L to 50 mg/L. Piperine at a same concentration range as that of boeravinone B was used as standard EPI. Nor A overexpressing derivative of a clinical isolate (SA-1199B) obtained from S. aureus strain ATCC No. 29213 (American Type Culture Collection Manassas, Va., USA) was kindly gifted by Dr G. W. Kaatz (Wayne State University School of Medicine, Detroit, Mich., USA). Bacterial inocula were prepared by adjusting the inoculum density of the overnight grown Staphylococcus aureus 1199B (Nor A overexpressing) to 0.5 McFarland (˜1.5×10^8 CFU/mL of Escherichia coli). These inocula were diluted 1:100 in sterile normal saline and 100 μl of these diluted inocula was dispensed in each well. The final bacterial inoculum reached in each well was equal 5×10^5 CFU/mL. The plates were incubated at 37° C. for 24 hrs. The MIC was read visually as the lowest concentration of ciprofloxacin inhibiting the growth of bacteria as evident from the absence of turbidity.

[2] = tested on: Staphylococcus aureus SA-K2191 (Msr A overexpressing); assay: Msr A efflux pump inhibition, broth checkerboard combination with erythromycin
Procedure: Combination studies were performed by a broth checkerboard method. A series of two-fold dilutions of test Erythromycin in Muller Hinton Broth (pH 7.0) was tested in combination with twofold dilutions of boeravinone B in 96-well microtiter plates. The final concentrations of erythromycin ranged from 0.03 mg/L/ml to 64 mg/L and for boeravinone B from 0.8 mg/L to 50 mg/L. MsrA overexpressing S. aureus derivative (RN4220) obtained by transforming with pSK265 into which the gene for MsrA has been cloned from S. aureus ATCC 29213 (American type culture collection Manassas, Va., USA) was kindly gifted by Dr G. W. Kaatz (Wayne State University School of Medicine, Detroit, Mich., USA). Bacterial inocula were prepared by adjusting the inoculum density of the overnight grown Staphylococcus aureus SA-K2191 (Msr A overexpressing) to 0.5 McFarland (˜1.5×10^8 CFU/mL of Escherichia coli). These inocula were diluted 1:100 in sterile normal saline and 100 μl of these diluted inocula was dispensed in each well. The final bacterial inoculum reached in each well was equal 5×10^5 CFU/mL. The plates were incubated at 37° C. for 24 hrs. The MIC was read visually as the lowest concentration of erythromycin inhibiting the growth of bacteria as evident from the absence of turbidity. […]

[3] = tested on: Staphylococcus aureus Mupr-1 (Mde A overexpressing); assay: Mde A efflux pump inhibition, broth checkerboard combination with mupirocin; conditions: for MIC: Staphylococcus aureus
Procedure: Staphylococcus aureus Mupr-1 (Mde A overexpressing) was prepared in-house from SA-1199-Wild type clinical isolate which was gifted by Prof. Dr G. W. Kaatz (Wayne State University School of Medicine, Detroit, Mich., USA) by serially passaging SA-1199 strain on mupirocin. Combination studies were performed by a broth checkerboard method. A series of twofold dilutions of test mupirocin in Muller Hinton Broth (pH 7.0) was tested in combination with twofold dilutions of boeravinone B in 96-well microtiter plates. The final concentrations of mupirocin ranged from 0.03 mg/L/ml to 64 mg/L and for boeravinone B from 0.8 mg/L to 50 mg/L. Bacterial inocula were prepared by adjusting the inoculum density of the overnight grown Staphylococcus aureus Mup^r-1 (Mde A overexpressing) to 0.5 McFarland (˜1.5×10^8 CFU/mL of Escherichia coli). Mde A overexpressing derivative S. aureus strain was prepared in lab upon mupirocin treatment (Mup^r-1) from S. aureus strain ATCC No. 29213 (American type culture collection Manassas, Va., USA). These inocula were diluted 1:100 in sterile normal saline and 100 μl of these diluted inocula was dispensed in each well. The final bacterial inoculum reached in each well was equal 5×10^5 CFU/mL. The plates were incubated at 37° C. for 24 hrs. The MIC was read visually as the lowest concentration of mupirocin inhibiting the growth of bacteria as evident from the absence of turbidity. […]

[4] = at 25 μM concentration of boeravinone B

## O=C(/C=C/C=C/c1ccc2c(c1)OCO2)N1CCCCC1 [Piperine, reference compound]
[1]; compound concentration 0.7 μM
  MIC of ciprofloxacin in presence of compound: 8 mg/L
[1]; compound concentration 1.5 μM
  MIC of ciprofloxacin in presence of compound: 8 mg/L
[1]; compound concentration 3.12 μM
  MIC of ciprofloxacin in presence of compound: 8 mg/L
[1]; compound concentration 6.25 μM
  MIC of ciprofloxacin in presence of compound: 8 mg/L
[1]; compound concentration 12.5 μM
  MIC of ciprofloxacin in presence of compound: 8 mg/L
[1]; compound concentration 25 μM
  MIC of ciprofloxacin in presence of compound: 4 mg/L
[1]; compound concentration 50 μM
  MIC of ciprofloxacin in presence of compound: 4 mg/L
[1]
  MEC4 (minimum effective concentration of compound that brings about 4 fold reduction in the MIC of Ciprofloxacin): >50 µM

## Cc1c(O)cc2oc3c(c(=O)c2c1O)-c1ccccc1OC3O (centres unmarked) [Boeravinone B, 6,9,11-trihydroxy-10-methyl[1]benzopyrano[3,4-b][1]benzopyran-12(6H)-one]
[1]; at highest concentration (50 μM) of boeravinone B
  decrease of the MIC of ciprofloxacin: 8 folds
[1]; combination with ciprofloxacin, MDR S. aureus, concentration not given
  enhancement in antibacterial activity of ciprofloxacin: 8 folds
[1]; compound concentration 0.7 μM
  MIC of ciprofloxacin in presence of compound: 8 mg/L
[1]; compound concentration 1.5 μM
  MIC of ciprofloxacin in presence of compound: 8 mg/L
[1]; compound concentration 3.12 μM
  MIC of ciprofloxacin in presence of compound: 4 mg/L
[1]; compound concentration 6.25 μM
  MIC of ciprofloxacin in presence of compound: 4 mg/L
[1]; compound concentration 12.5 μM
  MIC of ciprofloxacin in presence of compound: 2 mg/L
[1]; compound concentration 25 μM
  MIC of ciprofloxacin in presence of compound: 1 mg/L
[1]; compound concentration 50 μM
  MIC of ciprofloxacin in presence of compound: 1 mg/L
[1]
  MEC4 (minimum effective concentration of compound that brings about 4 fold reduction in the MIC of Ciprofloxacin): 12.5 µM
[2]; [4]
  reduction of MIC of erythromycin: 4 folds
[2]; combination with erythromycin, MDR S. aureus, concentration not given
  enhancement in antibacterial activity of erythromycin: 4 folds
[2]; compound concentration 0.7 μM
  MIC of Erythromycin in presence of compound: 64 mg/L
[2]; compound concentration 1.5 μM
  MIC of Erythromycin in presence of compound: 64 mg/L
[2]; compound concentration 3.12 μM
  MIC of Erythromycin in presence of compound: 64 mg/L
[2]; compound concentration 6.25 μM
  MIC of Erythromycin in presence of compound: 64 mg/L
[2]; compound concentration 12.5 μM
  MIC of Erythromycin in presence of compound: 32 mg/L
[2]; compound concentration 25 μM
  MIC of Erythromycin in presence of compound: 16 mg/L
[2]; compound concentration 50 μM
  MIC of Erythromycin in presence of compound: 16 mg/L
[2]; in combination with erythromycin
  MEC4 (minimum effective concentration of boeravinone B that brings about 4 fold reduction in the MIC of erythromycin): 25 µM
[3]; read-out: MIC of mupirocin in presence of compound, compound concentration 0.7 μM
  MIC: 256 mg/L
[3]; read-out: MIC of mupirocin in presence of compound, compound concentration 1.5 μM
  MIC: 256 mg/L
[3]; read-out: MIC of mupirocin in presence of compound, compound concentration 3.12 μM
  MIC: 256 mg/L
[3]; read-out: MIC of mupirocin in presence of compound, compound concentration 6.25 μM
  MIC: 256 mg/L
[3]; read-out: MIC of mupirocin in presence of compound, compound concentration 12.5 μM
  MIC: 128 mg/L
[3]; read-out: MIC of mupirocin in presence of compound, compound concentration 25 μM
  MIC: 64 mg/L
[3]; read-out: MIC of mupirocin in presence of compound, compound concentration 50 μM
  MIC: 64 mg/L
[3]; [4]
  reduction of MIC of mupirocin: 4 fold
[3]; combination with mupirocin, MDR S. aureus, concentration not given
  enhancement in antibacterial activity of mupirocin: 4 folds
[3]; in combination with mupirocin
  MEC4 (minimum effective concentration of boeravinone B that brings about 4 fold reduction in the MIC of Mupirocin): 25 µM

## O=C(O)c1cn(C2CC2)c2cc(N3CCNCC3)c(F)cc2c1=O [Ciprofloxacin, ciprofloxacin, reference compound]
[1]; Staphylococcus aureus, 24 h, read-out: MIC Ciprofloxacin Alone
  MIC: 8 mg/L

## CC[C@H]1OC(=O)[C@H](C)[C@@H](O[C@H]2C[C@@](C)(OC)[C@@H](O)[C@H](C)O2)[C@H](C)[C@@H](O[C@@H]2O[C@H](C)C[C@H](N(C)C)[C@H]2O)[C@](C)(O)C[C@@H](C)C(=O)[C@H](C)[C@@H](O)[C@]1(C)O [Erythromycin, erythromycin, reference compound]
[2]; Staphylococcus aureus, 24 h, read-out: MIC of Erythromycin Alone
  MIC: 64 mg/L

## C/C(=C\C(=O)OCCCCCCCCC(=O)O)C[C@@H]1OC[C@H](C[C@@H]2O[C@H]2[C@@H](C)[C@H](C)O)[C@@H](O)[C@H]1O [mupirocin, reference compound]
[3]; 24 h, read-out: MIC of mupirocin Alone, mupirocin alone, S. aureus Mupr-1, 24 hrs
  MIC: 256 mg/L

Source: patent US10064840B2, “Pharmaceutical composition for the treatment of multi-drug resistant infections” (priority 2014, dated 2018)
